Test results taken from EP0097071A1, “Benzhydryl sulfinylacetamide derivatives and their therapeutical use” (LABORATOIRE L. LAFON Société anonyme dite:, priority 1982, dated 1983).
Read-outs that look alike come from different tables or passages of the source.

Tests used:
souris mâle [1] = test: Toxicity, DL-0; assay type: in vivo; conditions: i.p.
Experimental: (§1) On a résumé ci-après les résultats des essais pharmacologiques qui ont été entrepris avec les produits selon la présente addition. Dans ces essais, les produits de formule I à étudier ont été administrés par voie intrapéritonéale, en suspension dans une solution aqueuse de gomme arabique, sous un volume de 20 ml/kg chez la souris mâle et sous un volume de 5 ml/kg chez le rat mâle.
La toxicité a été étudiée chez la souris mâle. Les résultats relatifs à la DL-0 (dose minimale non mortelle) sont donnés dans le tableau II ci-après.

souris [2] = test: Asphyxic anoxia (gallamine triethiodide); assay type: in vivo; conditions: 128 mg/kg i.p., 30 min before triiodoéthylate de gallamine 32 mg/kg i.p.
Experimental: as §1
Des lots de 10 souris par dose reçoivent le CRL 40933 30 min avant l'administration intrapéritonéale de 32 mg/kg de triiodoéthylate de gallamine.

souris [3] = test: Interaction with apomorphine, mouse; assay type: in vivo
Experimental: as §1
Des lots de 6 souris par dose reçoivent le CRL 40933 0,5 h avant l'injection sous-cutanée d'apomorphine administrée à la dose de 1 ou 16 mg/kg.

souris [4] = test: Electroshock; assay type: in vivo; conditions: 32 mg/kg à 128 mg/kg i.p.
Experimental: as §1
(§2) Les essais sont effectués sur des lots de 10 souris (par dose) 0,5 h après l'administration du CRL 40933.

SNC = test: Essential activity on the CNS (Tableau I and conclusions of the neuropsychopharmacological study); assay type: in vivo
From the text: Dans le tableau I ci-après, on a consigné un certain nombre de composés selon la formule I de façon nullement limitative, en mentionnant l'activité essentielle sur le SNC.
Les composés de formule I agissent tous sur le SNC. Les produits des exemples 1-3 et 7-8 sont des agents stimulants, en revanche les produits des exemples 4-6 sont des agents sédatifs.

souris [5] = test: Spontaneous motility (actimeter); assay type: in vivo
Experimental: as §1
Une demi-heure, après avoir reçu le CRL 40933, les souris (6 par dose, 12 témoins) sont placées en actimètre où leur motilité est enregistrée pendant 30 min.

homme = test: Clinical trials; assay type: in vivo
From the text: Les études cliniques ont porté sur les troubles de la vigilance, de l'éveil et des états confusionnels, d'une part, et sur les troubles de l'affectivité, du contact et des dépressions, d'autre part.

souris [6] = test: Intergroup aggressiveness; assay type: in vivo; conditions: dose not stated
Experimental: as §1
Après avoir séjourné pendant 3 semaines dans chacune des moitiés d'une cage séparées par une cloison opaque, des groupes de 3 souris reçoivent le CRL 40933. 30 min plus tard, les deux groupes d'une même cage sont réunis par retrait de la cloison et on note le nombre de combats qui surviennent en 10 min.

rat = test: Interaction with apomorphine, rat; assay type: in vivo; conditions: apomorphine 0,5 mg/kg s.c., dose not stated
Experimental: as §1
Le CRL 40933 est administré à des lots de 6 rats 0,5 h avant l'injection sous-cutanée de 0,5 mg/kg d'apomorphine.

souris [7] = test: Four plates test; assay type: in vivo; conditions: 0,5 h after administration, dose not stated
Experimental: as §1, §2

souris [8] = test: Motility reduced by habituation to the enclosure; assay type: in vivo
Experimental: as §1
Après 18 h de séjour dans les actimètres, les souris (6 par dose, 12 témoins) reçoivent le CRL 40933. Elles sont aussitôt replacées dans leurs enceintes respectives et, 30 min plus tard, on enregistre leur motilité pendant 30 min.

souris [9] = test: Motility reduced by hypoxic aggression (acute hypobaric anoxia); assay type: in vivo; conditions: 128 mg/kg i.p.
Experimental: as §1
Une demi-heure après avoir reçu le CRL 40933, les souris (10 par dose, 20 témoins) sont soumises à une anoxie hypobare aiguë [dépression de 600 mm Hg (soit environ 8 x 10^4 pascals) en 90 s, puis détente de 45 s], puis elles sont placées en actimètre où leur motilité est enregistrée pendant 10 min.

souris [10] = test: Traction test; assay type: in vivo; conditions: 0,5 h after administration, dose not stated
Experimental: as §1, §2

souris [11] = test: Interaction with barbital (sleep); assay type: in vivo; conditions: dès la dose de 8 mg/kg i.p., barbital 220 mg/kg i.p.
Experimental: as §1
Une demi-heure après l'administration de CRL 40933, des lots de 10 souris reçoivent une injection intrapéritonéale de 220 mg/kg de barbital.

souris mâle [12] = test: Pentobarbital-induced sleep duration; assay type: in vivo; conditions: dose 8 mg/kg i.p., 0,5 h before pentobarbital
From the text: Les composés selon l'invention se distinguent du benzhydrylsulfinylacétamide (CRL 40476) précité par une différence d'action vis-à-vis du sommeil barbiturique. […]. Cette différence d'action qui est intéressante sur le plan thérapeutique est illustrée par le tableau IV

rats mâles = test: Global behaviour and reactivities, rat; assay type: in vivo
Experimental: as §1
(§3) Pour apprécier le comportement global et les réactivités, des lots de six animaux (souris mâles ou rats mâles) ont été observés avant administration de chaque produit, puis 15 min, 30 min, 1 h, 2 h, 3 h et 24 h après administration de chaque produit. Les résultats sont consignés dans le tableau III ci-après, […]

souris [13] = test: Interaction with reserpine; assay type: in vivo; conditions: 32 mg/kg et 12'8 mg/kg i.p.
Experimental: as §1
Quatre heures après l'injection intrapéritonéale de 2,5 mg/kg de réserpine, des lots de 6 souris reçoivent le CRL 40933.

[14] = Global behaviour and reactivities, mouse; assay type: in vivo, souris; conditions: mouse, in vivo, ip, souris, 24 h après administration, read-out: mortalité tardive
Experimental: as §1, §3

souris mâles = test: Global behaviour and reactivities, mouse; assay type: in vivo; conditions: souris
Experimental: as §1, §3

souris [15] = test: Interaction with oxotremorine; assay type: in vivo
Experimental: as §1
Le CRL 40933 est administré à des lots de 6 souris 0,5 h avant l'injection intrapéritonéale de 0,5 mg/kg d'oxotrémorine.

rats = test: Interaction with amphetamine (stereotypies); assay type: in vivo; conditions: rat; amphétamine 2 mg/kg i.p.; doses used, not stated
Experimental: as §1
L'amphétamine (2 mg/kg)est injectée par voie intrapéritonéale à des lots de 6 rats, 30 min après l'administration de CRL 40933.

souris [16] = test: Behavioural despair (forced immersion); assay type: in vivo; conditions: souris; 8 mg/kg, 32 mg/kg, mais surtout 128 mg/kg i.p.
Experimental: as §1
Une demi-heure après avoir reçu le CRL 40933, des lots de 10 souris par dose sont placés dans un espace restreint rempli d'eau sur une hauteur de 6 cm; on note la durée d'immobilité entre la 2e et la 6e minute suivant l'immersion.

SMILES: NC(=O)C[S+]([O-])C(c1ccccc1)c1ccc(Cl)cc1 (stereo not shown) [Exemple 7, 4-chlorobenzhydrylsulfinylacétamide]
- DL-O (souris mâle [1]): supérieure à 256 mg/kg
- délai d'apparition des convulsions et de la mort consécutives à une anoxie asphyxique (souris [2]): diminue
- comportement de verticalisation et stéréotypies (apomorphine) (souris [3]; 128 mg/kg i.p.): sans modifier
- action hypothermisante de l'apomorphine (souris [3]; 128 mg/kg i.p. 0,5 h before apomorphine 16 mg/kg s.c.): s'oppose
- effets convulsivants de l'électrochoc (souris [4]): s'oppose
- Activité sur le SNC (SNC; in vivo): stimulant
- conclusion of the neuropsychopharmacological study: main type of CNS effect (SNC; in vivo): effets de type stimulant
- conclusion: effets de type antidépresseur (SNC; in vivo): effets de type antidépresseur qui sont faibles
- conclusion: effets anticonvulsivants (SNC; souris mâle): effets anticonvulsivants
- motilité spontanée (souris [5]; 2 mg/kg i.p. (lowest dose used)): diminution de motilité
- motilité spontanée (souris [5]; 32 mg/kg et 128 mg/kg i.p.): augmentation nette
- action contre l'énurésie (homme): agissent efficacement
- résultats en tant que médicaments de l'éveil (homme; notamment vieillard, gélules ou comprimés de 100 à 200 mg, 1 à 3 par jour): excellents résultats
- agressivité intergroupes (nombre de combats) (souris [6]): ne modifie pas nettement
- stéréotypies induites par l'apomorphine (rat): ne modifie pas
- nombre de passages punis (souris [7]): n'entraine pas d'augmentation nette
- reprise de l'activité chez la souris habituée à son enceinte (souris [8]; 2 mg/kg et 8 mg/kg i.p.): à peine perceptible
- reprise de l'activité chez la souris habituée à son enceinte (souris [8]; 32 mg/kg à 128 mg/kg i.p.): net
- récupération motrice après séjour bref dans une enceinte à pression réduite (souris [9]): amélioration nette
- déficit moteur (traction) (souris [10]): ne provoque pas de déficit moteur majeur
- durée du sommeil induit par le barbital (souris [11]): diminue
- Action sur la durée du sommeil induit par le pentobarbital (50 mg/kg i.p.) effet (souris mâle [12]): (a)
- Observations (comportement global et réactivités) (rats mâles; 16 mg/kg i.p.): mydriase 1 h après administration
- Observations (comportement global et réactivités) (rats mâles; 64 mg/kg i.p.): hypotonie musculaire pendant 3 h - respiration déprimée pendant 3 h - mydriase pendant 2 à 3 h
- ptôsis réserpinique (souris [13]): sans modifier
- hypothermie réserpinique (souris [13]; 4 h after réserpine 2,5 mg/kg i.p.): s'oppose très faiblement
- mortality at 24 h ([14]; 512 mg/kg i.p.): 33%
- mortality at 24 h ([14]; 1024 mg/kg i.p.): 66%
- Observations (comportement global et réactivités) (souris mâles; 512 mg/kg i.p.): crampes abdominales, sédation et hypo-réactivité au toucher
- Observations (comportement global et réactivités) (souris mâles; 1024 mg/kg i.p.): crampes abdominales, sédation et hypo-réactivité au toucher, respiration dépri-mée
- Observations (comportement global et réactivités) (souris mâles; 128 mg/kg i.p.): excitation apparaissant 1,5 h après administration et durant 3 h - réactivité au toucher
- Observations (comportement global et réactivités) (souris mâles; 256 mg/kg i.p.): crampes abdominales, respiration déprimée, puis - excitation apparaissant 1,5 h après administration
- effet hypothermisant de l'oxotrémorine (souris [15]; 128 mg/kg i.p., 0,5 h before oxotrémorine 0,5 mg/kg i.p.): s'oppose faiblement
- signes de stimulation cholinergique périphérique dus à l'oxotrémorine (souris [15]; dose not stated): ne modifie pas
- tremblements induits par l'oxotrémorine (souris [15]; dose not stated): ne sont pas influencés
- stéréotypies amphétaminiques (rats): ne modifie pas sensiblement
- durée d'immobilité (souris [16]): diminue
